# Assay results: US20090143752A1, “Passive intraocular drug delivery devices and associated methods” (priority 2007, published 2009)
# Columns and labels:
# [1] = New Zealand White, rabbit, in vivo, 4 h
# Protocol: A 100 microliter/30 G needle Hamilton syringe is used to administer a sub conjunctiva injection (n=2) of 20 microliters of 0.1M DSP at pH 7 into an eye of a New Zealand White Rabbit. The initial dose of DSP is 1.04 mg. […] The process is repeated for a total of 2 trials. About 23 micrograms of the approximate 1.04 mg subconjunctival injection of DSP are recovered from the whole eye after 4 hours. This illustrates the clearance effects of the transscleral pathway; in this case about 97.8 percent of the drug cleared the eye within four hours.
# [2] = DSP in eye tissues after passive delivery from six chambered annular lens-shaped housing, immediate release (Example 2); type: in vivo, New Zealand White Rabbit; details: rabbit eye, 0.5 M DSP pH 7, 6.47 mgs in each of 3 chambers, housing on eye 20 minutes, 4 hours after application
# Protocol: A six chambered annular lens-shaped housing is used to passively administer dexamethasone sodium phosphate (DSP) into the eye for immediate release. Chambers 1, 3, and 5 each contain a 2 mm Avalon Sponge hydrated with 25 μl of hydrogel and are further loaded with 6.47 mgs of 0.5 M DSP at pH 7 in each chamber. […] The process is repeated for a total of 4 trials.
smiles,measurement,setting,value
"C[C@@H]1C[C@H]2[C@@H]3CCC4=CC(=O)C=C[C@]4(C)[C@@]3(F)[C@@H](O)C[C@]2(C)[C@@]1(O)C(=O)COP(=O)(O)O [DSP, dexamethasone sodium phosphate]",percent of the drug cleared the eye,[1],about 97.8%
same,"DSP Total Drug, Conjunctiva",[2],6.2 ± 0.8 micrograms
same,"DSP Total Drug, Retina/Choroid",[2],1.1 ± 0.5 micrograms
same,"DSP Total Drug, Sclera",[2],4.3 ± 1.0 micrograms
same,"DSP Total Drug, Whole Eye",[2],14.9 ± 1.1 micrograms
